Reference: ChEMBL document CHEMBL3399957, “Synthesis and SAR studies of analogues of 4-(3,3-dimethyl-butyrylamino)-3,5-difluoro-N-thiazol-2-yl-benzamide (Lu AA41063) as adenosine A2A receptor ligands with improved aqueous solubility” (Bioorg Med Chem Lett, 2015)
≈ marks a conversion by molar mass, not a printed value.

Legend:
Cytochrome P450 2C19 = Cytochrome P450 2C19 (Homo sapiens, UniProt P33261); experiment: Inhibition of CYP2C19 (unknown origin); format: ADME
Cytochrome P450 2C9 = Cytochrome P450 2C9 (Homo sapiens, UniProt P11712); experiment: Inhibition of CYP2C9 (unknown origin); format: ADME
Cytochrome P450 3A4 = Cytochrome P450 3A4 (Homo sapiens, UniProt P08684); experiment: Inhibition of CYP3A4 (unknown origin); format: ADME
Cytochrome P450 2D6 = Cytochrome P450 2D6 (Homo sapiens, UniProt P10635); experiment: Inhibition of CYP2D6 (unknown origin); format: ADME
[1] = Intrinsic clearance in human liver microsomes; format: ADME; conditions: read-out: CLH (converted)
Cytochrome P450 1A2 = molecular target: T1, Cytochrome P450 1A2 (Homo sapiens, UniProt P05177); experiment: Inhibition of CYP1A2 (unknown origin); format: ADME
T1 sequence (P05177 whole entry): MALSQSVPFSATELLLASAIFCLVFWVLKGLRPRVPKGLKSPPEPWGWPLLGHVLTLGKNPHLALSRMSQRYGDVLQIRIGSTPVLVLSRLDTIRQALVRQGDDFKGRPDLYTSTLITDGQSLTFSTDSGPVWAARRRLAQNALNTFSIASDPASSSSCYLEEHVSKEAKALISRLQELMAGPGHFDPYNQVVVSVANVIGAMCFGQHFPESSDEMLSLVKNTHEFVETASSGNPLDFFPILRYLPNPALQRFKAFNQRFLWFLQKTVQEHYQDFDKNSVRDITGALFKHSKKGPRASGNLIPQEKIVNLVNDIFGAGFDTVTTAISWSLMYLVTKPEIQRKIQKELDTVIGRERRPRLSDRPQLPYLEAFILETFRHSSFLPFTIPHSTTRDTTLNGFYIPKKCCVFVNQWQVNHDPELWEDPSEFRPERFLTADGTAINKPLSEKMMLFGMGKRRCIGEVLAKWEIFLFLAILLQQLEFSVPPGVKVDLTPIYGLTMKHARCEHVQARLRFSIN

Adenosine receptor A2a [2] = molecular target: T2, Adenosine receptor A2a (Homo sapiens, UniProt P29274); experiment: Antagonist activity at human adenosine A2A receptor
[3] = Aqueous solubility of the compound at pH 7.4; format: physicochemical; conditions: buffer
[4] = Aqueous solubility of the compound; format: physicochemical; conditions: buffer
Adenosine receptor A2a [5] = molecular target: T2, Adenosine receptor A2a; experiment: Displacement of radioligand from human adenosine A2A receptor at 1000 nM relative to control

T2 sequence (P29274 whole entry): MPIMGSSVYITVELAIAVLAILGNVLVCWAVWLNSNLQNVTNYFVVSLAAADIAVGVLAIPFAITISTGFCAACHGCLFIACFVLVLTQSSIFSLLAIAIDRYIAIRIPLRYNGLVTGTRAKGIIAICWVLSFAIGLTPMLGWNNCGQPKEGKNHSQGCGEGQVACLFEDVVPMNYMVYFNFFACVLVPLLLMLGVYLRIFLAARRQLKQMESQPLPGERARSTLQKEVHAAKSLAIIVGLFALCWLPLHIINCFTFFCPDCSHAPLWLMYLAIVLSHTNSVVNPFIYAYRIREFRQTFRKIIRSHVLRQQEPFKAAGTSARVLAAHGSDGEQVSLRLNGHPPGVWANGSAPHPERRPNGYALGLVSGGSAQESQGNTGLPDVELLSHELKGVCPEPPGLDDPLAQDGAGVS
Chain of Cytochrome P450 2D6 (P10635 whole entry): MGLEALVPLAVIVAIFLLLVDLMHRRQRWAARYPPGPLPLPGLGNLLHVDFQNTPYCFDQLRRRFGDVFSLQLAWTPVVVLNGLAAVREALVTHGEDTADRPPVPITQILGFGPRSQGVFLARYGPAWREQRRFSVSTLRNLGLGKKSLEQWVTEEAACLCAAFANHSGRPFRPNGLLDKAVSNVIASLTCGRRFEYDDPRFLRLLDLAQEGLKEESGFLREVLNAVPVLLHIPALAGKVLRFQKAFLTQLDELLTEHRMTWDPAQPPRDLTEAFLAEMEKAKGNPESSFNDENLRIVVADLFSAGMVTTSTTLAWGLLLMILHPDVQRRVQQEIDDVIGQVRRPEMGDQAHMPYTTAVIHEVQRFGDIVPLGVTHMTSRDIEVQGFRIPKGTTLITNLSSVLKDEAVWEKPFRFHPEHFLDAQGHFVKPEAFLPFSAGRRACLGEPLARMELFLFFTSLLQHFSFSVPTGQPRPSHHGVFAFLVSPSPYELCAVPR
Chain of Cytochrome P450 3A4 (P08684 whole entry): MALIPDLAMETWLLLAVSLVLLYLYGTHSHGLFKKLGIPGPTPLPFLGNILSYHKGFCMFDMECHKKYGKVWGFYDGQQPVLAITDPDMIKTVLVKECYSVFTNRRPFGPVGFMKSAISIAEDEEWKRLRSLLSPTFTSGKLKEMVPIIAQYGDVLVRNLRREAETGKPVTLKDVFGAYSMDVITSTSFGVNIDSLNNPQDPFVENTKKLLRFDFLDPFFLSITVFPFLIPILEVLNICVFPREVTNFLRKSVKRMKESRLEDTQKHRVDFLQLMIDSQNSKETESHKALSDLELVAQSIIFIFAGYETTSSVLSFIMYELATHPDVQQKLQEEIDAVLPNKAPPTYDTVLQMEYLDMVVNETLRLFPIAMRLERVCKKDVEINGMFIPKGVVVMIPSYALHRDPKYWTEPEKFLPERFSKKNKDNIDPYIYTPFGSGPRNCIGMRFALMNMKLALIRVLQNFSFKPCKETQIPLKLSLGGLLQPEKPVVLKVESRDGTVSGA
Chain of Cytochrome P450 2C19 (P33261 whole entry): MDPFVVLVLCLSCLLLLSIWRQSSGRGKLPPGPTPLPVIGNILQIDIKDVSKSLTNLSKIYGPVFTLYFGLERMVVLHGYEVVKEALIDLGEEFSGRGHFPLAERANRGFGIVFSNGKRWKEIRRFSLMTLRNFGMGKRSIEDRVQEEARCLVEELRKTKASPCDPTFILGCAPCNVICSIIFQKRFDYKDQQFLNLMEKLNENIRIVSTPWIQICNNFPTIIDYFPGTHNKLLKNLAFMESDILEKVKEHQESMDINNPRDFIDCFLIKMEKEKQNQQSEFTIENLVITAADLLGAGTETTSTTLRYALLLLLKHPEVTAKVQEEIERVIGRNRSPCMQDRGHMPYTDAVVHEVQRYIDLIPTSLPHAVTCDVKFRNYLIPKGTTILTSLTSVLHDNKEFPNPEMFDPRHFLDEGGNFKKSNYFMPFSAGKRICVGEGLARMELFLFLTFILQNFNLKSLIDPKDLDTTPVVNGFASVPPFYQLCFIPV
Chain of Cytochrome P450 2C9 (P11712 whole entry): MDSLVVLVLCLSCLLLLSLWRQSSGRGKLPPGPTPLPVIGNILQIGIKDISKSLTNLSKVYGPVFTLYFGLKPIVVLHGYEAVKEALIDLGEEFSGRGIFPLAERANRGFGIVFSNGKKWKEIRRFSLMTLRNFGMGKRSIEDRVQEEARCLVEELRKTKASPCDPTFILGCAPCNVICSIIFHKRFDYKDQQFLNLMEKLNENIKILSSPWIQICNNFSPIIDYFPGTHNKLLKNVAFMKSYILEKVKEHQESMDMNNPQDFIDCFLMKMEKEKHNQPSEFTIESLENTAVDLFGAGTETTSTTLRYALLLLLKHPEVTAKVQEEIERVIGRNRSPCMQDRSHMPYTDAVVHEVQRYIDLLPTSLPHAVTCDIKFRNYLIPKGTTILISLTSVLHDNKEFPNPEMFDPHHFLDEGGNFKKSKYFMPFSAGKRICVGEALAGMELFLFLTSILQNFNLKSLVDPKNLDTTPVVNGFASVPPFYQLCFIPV

## CC(CCN1CCOCC1)CC(=O)Nc1ccc(C(=O)Nc2nccs2)cc1 (centres undefined)
Cytochrome P450 2C19
  IC50: > 40000 nM
Cytochrome P450 2C9
  IC50: > 40000 nM
Cytochrome P450 3A4
  IC50: > 40000 nM
Cytochrome P450 2D6
  IC50: 18000 nM
[1]
  CLint scaled: 10.3 mL/min/kg
Cytochrome P450 1A2
  IC50: > 40000 nM
Adenosine receptor A2a [2]
  Ki: 110 nM
[3]
  solubility: 116 µg/mL (≈ 288 µM)

## CC(C)(C)CC(=O)Nc1ccc(CNc2nccs2)cc1
Adenosine receptor A2a [2]
  Ki: > 6000 nM

## CC(C)(O)CC(=O)Nc1ccc(C(=O)Nc2nccs2)cc1
Adenosine receptor A2a [2]
  Ki: 1100 nM

## O=C(CC1CCCC1)Nc1ccc(C(=O)Nc2nccs2)cc1
Adenosine receptor A2a [2]
  Ki: 67 nM

## O=C(CC1CCCN1)Nc1ccc(C(=O)Nc2nccs2)cc1 (centres undefined)
Adenosine receptor A2a [2]
  Ki: 6600 nM

## CC(C)(C)CC(=O)Nc1ccc(C(=O)Nc2nccs2)nc1
[4]
  solubility: 10 µg/mL (≈ 31.4 µM)
Adenosine receptor A2a [2]
  Ki: 300 nM

## Cc1cc(C(=O)Nc2nccs2)ccc1NC(=O)CN(C)C
Adenosine receptor A2a [5]
  inhibition: 1%

## CCN(CC)CCCCCC(=O)Nc1ccc(C(=O)Nc2nccs2)cc1
Adenosine receptor A2a [2]
  Ki: 240 nM

## CC(C)CC(=O)Nc1ccc(C(=O)Nc2nccs2)cc1
Adenosine receptor A2a [2]
  Ki: 59 nM

## CCN(CC)CCC(C)CC(=O)Nc1ccc(C(=O)Nc2nccs2)cc1 (centres undefined)
Adenosine receptor A2a [2]
  Ki: 110 nM

## CC(C)CCNc1ccc(C(=O)Nc2nccs2)cc1
Adenosine receptor A2a [2]
  Ki: 730 nM

## CC(C)(C)CC(=O)Nc1ccc(C(=O)Nc2nccs2)cn1
Adenosine receptor A2a [5]
  inhibition: 30%

## CCN(CC)CCCCC(=O)Nc1ccc(C(=O)Nc2nccs2)cc1
Adenosine receptor A2a [2]
  Ki: 830 nM

## Cc1cc(C(=O)Nc2nccs2)ccc1NC(=O)CC(C)(C)C
Adenosine receptor A2a [2]
  Ki: 67 nM

## O=C(CC1CCNC1)Nc1ccc(C(=O)Nc2nccs2)cc1 (centres undefined)
Adenosine receptor A2a [2]
  Ki: > 2100 nM

## CCN(CC)CCCCCCCC(=O)Nc1ccc(C(=O)Nc2nccs2)cc1
Adenosine receptor A2a [2]
  Ki: 130 nM
